Data: patent publication US20250101486A1, “METHOD AND COMPOSITION FOR STABILISING NICOTINAMIDE ADENINE DINUCLEOTIDE” (ORIENTAL YEAST CO., LTD., priority 2022, published 2025)
Blank lines part the entries; values can stand above or below the compound they belong to.

Experiments:
[1] = Stabilizing study of NAD in blood using nicotinamide and NMN; conditions: rat whole blood, overnight at 25° C.
Protocol: (§1) Three times the volume of 0.4 M trichloroacetic acid solution was added to the collected sample, mixed, and placed for 10 minutes under a static condition at room temperature. The mixture was then centrifuged, and the supernatant was collected as an NAD extract.
(§2) NAD in the extract was measured using a 7180 type Hitachi automatic analyzer (manufactured by Hitachi High-Tech Corporation). The measurement was performed by setting the first test solution (comprising a phosphate buffer (pH 7.0), 0.6 mM WST-8 and 1.7 U/mL glucose dehydrogenase (GLUCDH “Amano” 2 manufactured by Amano Enzyme Inc.) and the second test solution (comprising a phosphate buffer (pH 7.8), 320 mM D-glucose and 15 U/mL diaphorase (No. 46445003 manufactured by Oriental Yeast Co., Ltd.) using the measurement parameters as follows. • Analysis method . . . Rate A • Measurement wavelength (sub/main) . . . 600 nm/450 nm • Reaction duration . . . 10 minutes • Photometric points 27 to 34 • Sample solution (NAD extract solution) . . . 2 μL • R1 reagent . . . 120 μL • R2 reagent . . . 40 μL
(§3) That is, 2 AL of NAD extract and 120 μL of the first test solution were mixed and incubated at 37° C. for 4.5 min (photometric point 1 to 16), and 40 μL of the second test solution was added to start the reaction (photometric point 17). The value of an absorbance change per minute (ΔAbs/min) was calculated by subtracting an absorbance of water (blank) at the same photometric point from the absorbance value of the measured sample at 8 to 10 minutes (photometric point 27 to 34) after the start of reaction.
(§4) The NAD concentration of the sample was calculated from the calibration curve (the NAD concentration−the increase rate of absorbance (ΔAbs/min)) that was obtained beforehand by measuring multiple NAD solutions at predetermined concentrations.
(§5) Whole blood was collected from SD retired rats using EDTA-filled blood collection tubes. PBS (pH 6.0) comprising nicotinamide and NMN at 10 times the concentration shown in Table 1 was prepared as a 10× stabilizer for each. 450 μL of whole blood was transferred to a 1.5-mL centrifuge tube, and 50 μL of a 10× stabilizer for each was added and mixed. NAD was added to each tube to make 100 µM and used as a measurement sample.
(§6) The NAD extraction and the NAD measurement were performed on each measurement sample after being placed overnight under a static condition at 25° C., in the same manner according to Example 1. The relative value (%) of NAD concentration of each measured sample was calculated, wherein the concentration at the time of NAD addition (0 hour) was set as 100%. […] It was confirmed that the amount of remaining NAD became higher as the amount of nicotinamide and NMN increased.

[2] = Stabilizing study of NAD in blood using nicotinamide and NR; conditions: rat whole blood, overnight at 25° C.
Protocol: as §1, §2, §3, §4
as §5, with “collection tubes,” for “collection tubes.”, “and NR” for “and NMN”, “Table 2” for “Table 1”
as §6, with “NR” for “NMN”

[3] = Stabilizing study of NAD in blood using NMN and NR; conditions: rat whole blood, overnight at 25° C.
Protocol: Whole blood was collected from SD retired rats using EDTA-filled blood collection tubes. PBS (pH 6.0) comprising NMN and NR at 10 times the concentration shown in Table 3 was prepared as a 10× stabilizer for each. 450 μL of whole blood was transferred to a 1.5-mL centrifuge tube, and 50 μL of 10× stabilizer for each was added and mixed. NAD was added to each tube to make 100 µM and used as a measurement sample.
The NAD extraction and the NAD measurement were performed on each measurement sample after being placed overnight under a static condition overnight at 25° C., in the same manner according to Example 1. The relative value (%) of NAD concentration of each measured sample was calculated, wherein the concentration at the time of NAD addition (0 hour) was set as 100%.

[4] = Stability test of NAD (recovery test of NAD added to human pooled serum); assay type: in vitro ADME
Protocol: NAD was added to 2250 μL of human pooled serum to make 50 μmol/L and incubated at refrigeration, 25° C. and 37° C. The NAD concentrations in serum were measured at 1, 2, and 19 hours after the start of incubation.
The NAD concentration of the sample (i.e., serum) was measured by the following procedure,
as §1, §2, §3, §4
FIG. 1 is a graph illustrating a time-course change of relative values (%) of the NAD concentration in serum under each incubation condition when the concentration at the time of NAD addition (0 hour) is set as 100%. When stored at 25° C. and 37° C., the NAD concentrations reached almost 0% within two hours.

[5] = after collection, suspended in a buffer solution for extraction, cooled in ice; cited from earlier work

Compound: NC(=O)c1cccnc1 [Nicotinamide, nicotinamide]
relative value (%) of NAD concentration (0 hour = 100%) ([1]; 50 mM nicotinamide, 0 mM NMN): 7.4%
relative value (%) of NAD concentration (0 hour = 100%) ([1]; 100 mM nicotinamide, 0 mM NMN): 6.6%
relative value (%) of NAD concentration (0 hour = 100%) ([1]; 200 mM nicotinamide, 0 mM NMN): 13.7%
relative value (%) of NAD concentration (0 hour = 100%) ([2]; 50 mM nicotinamide, 0 mM NR): 7.8%
relative value (%) of NAD concentration (0 hour = 100%) ([2]; 100 mM nicotinamide, 0 mM NR): 8.7%
relative value (%) of NAD concentration (0 hour = 100%) ([2]; 200 mM nicotinamide, 0 mM NR): 10.8%

Compound: nicotinamide mononucleotide [NMN]
relative value (%) of NAD concentration (0 hour = 100%) ([1]; 0 mM nicotinamide, 3 mM NMN): 8.2%
relative value (%) of NAD concentration (0 hour = 100%) ([1]; 0 mM nicotinamide, 10 mM NMN): 16.1%
relative value (%) of NAD concentration (0 hour = 100%) ([1]; 0 mM nicotinamide, 20 mM NMN): 33.0%
relative value (%) of NAD concentration (0 hour = 100%) ([3]; 0 mM NR, 20 mM NMN): 29.1%
relative value (%) of NAD concentration (0 hour = 100%) ([3]; 0 mM NR, 50 mM NMN): 58.0%
relative value (%) of NAD concentration (0 hour = 100%) ([3]; 0 mM NR, 100 mM NMN): 89.6%

relative value (%) of NAD concentration in serum (0 hour = 100%) ([4]; stored at 25° C., within two hours): ~0%
relative value (%) of NAD concentration in serum (0 hour = 100%) ([4]; stored at 37° C., within two hours): ~0%
relative value (%) of NAD concentration in serum (0 hour = 100%) ([4]; stored at refrigeration, within 20 hours): ~0%
NAD concentration in serum relative to 0 hour ([4]; stored at refrigeration, within two hours): reduced by about half
Compound: NC(=O)c1ccc[n+]([C@@H]2O[C@H](COP(=O)([O-])OP(=O)(O)OC[C@H]3O[C@@H](n4cnc5c(N)ncnc54)[C@H](O)[C@@H]3O)[C@@H](O)[C@H]2O)c1 [NAD, nicotinamide adenine dinucleotide]
time for which a blood sample for NAD measurement is stable [5]: 5 h

Compound: NC(=O)c1ccc[n+]([C@@H]2O[C@H](CO)[C@@H](O)[C@H]2O)c1 [NR, nicotinamide riboside]
relative value (%) of NAD concentration (0 hour = 100%) ([2]; 0 mM nicotinamide, 3 mM NR): 7.5%
relative value (%) of NAD concentration (0 hour = 100%) ([2]; 0 mM nicotinamide, 10 mM NR): 49.7%
relative value (%) of NAD concentration (0 hour = 100%) ([2]; 0 mM nicotinamide, 20 mM NR): 64.8%
relative value (%) of NAD concentration (0 hour = 100%) ([3]; 20 mM NR, 0 mM NMN): 62.9%
relative value (%) of NAD concentration (0 hour = 100%) ([3]; 50 mM NR, 0 mM NMN): 71.2%
relative value (%) of NAD concentration (0 hour = 100%) ([3]; 100 mM NR, 0 mM NMN): 77.7%
